Measurements taken from patent US20130005720A1, “PHARMACEUTICAL COMPOSITION FOR TREATING CANCER AND APPLICATIONS THEREOF” (Academia Sinica, priority 2011, published 2013).

Assays:
[1] = system: d(TTAGGG)4 (HT24), G4 structure of human telomere; experiment: CD and 1H NMR spectra: conversion of G4 structure conformation of HT24 in K+ or Na+ solution; type: binding; conditions: for CD spectral change before and after annealing: 5 μM HT24, 1 eq. compound; for formation of G4 structures and conversion of G4 structures of human telomeres from nonparallel to parallel forms: K+ solution, summary statement
Procedure: (§1) All oligonucleotides were purchased from Bio Basic Inc. and used without further purification, including the single strand sequence derived from telomere of human chromosome, d(TTAGGG)4 (HT24) (SEQ ID NO: 1). Solutions of 10 mM Tris-HCl (pH 7.5) and its mixed solutions with KCl were mixed with each DNA sample and heated to 95° C. for 10 min first, cooled slowly to room temperature, and then stored for 48 h at 4° C. before use.
It is well-known that the linear parallel G4 structures, such as a propeller form, give a positive band at around 265 nm and a negative band at around 240 nm, while the anti-parallel G4 structures, such as a basket or chair form, show two positive bands at around 295 nm and 240 nm and a negative band at around 265 nm. In addition, the hybrid type G4 structures (3+1, including 3 parallel and 1 anti-parallel G4 structures) give a positive CD band at around 290 nm and a positive shoulder band at around 265 nm. The anti-parallel and hybrid type are both so-called “non-parallel” G4 structures. These spectral features are mainly attributed to the specific guanine stacking in various G4 structures.
(§2) J-815 spectropolarimeter (Jasco, Japan) with a 2 nm bandwidth at a 50 nm/min scan speed and a 0.2 nm step resolution was used to obtain CD spectra, and the following data was provided as an average of 10 scan results. The CD spectra were measured by monitoring the G4 structures under N2 over the range of 210 nm to 350 nm, and the thermal melting curves, as a function of temperature, were obtained by monitoring the CD intensity at 265 nm. Three independently scans were recorded for each sample. The melting temperature (Tm) was measured from the first differentiation of the melting curve.
5 μM HT24 and 1 eq. BMVC-8C3O (the equivalence ratio of HT24:BMVC-8C30 is 1:1) were used to detect whether BMVC-8C3O could convert the G4 structure conformation of HT24 from non-parallel to parallel.
The CD spectra of the HT24 and its complexes with 1 eq. BMVC-8C3O mixed in a 150 mM K^+ solution or in a 150 mM Na^+ solution were measured right after the mixing step under room temperature, as shown in FIGS. 2A and 2B (+BMVC-8C3O×1). Another set of spectra were obtained after these samples were annealed, i.e. heated at 95° C., and then gradually cooled down to room temperature (+BMVC-8C3O×1 anneal). […] These spectral features are consistent with the spectral changes of d[G3(T2AG3)3] (HT21) in K^+ or Na^+ solution upon the addition of 40% PEG (see Xue et al., 2007). That is to say, the peak at 265 nm (parallel G4 structure) increases and the peak at 290 nm (non-parallel G4 structure) decreases. This is, BMVC-8C3O and 40% PEG can converse the G4 structures from the non-parallel to the parallel.
BMVC-8C3O at 37° C., as a function of time.
In addition, 0.1 mM HT24 was mixed with 5 eq. BMVC-8C3O and dissolved in a H2O/D2O (90%/10%) solution containing 10 mM tris-HCl (pH 7.5) and 150 mM KCl to prepare samples for NMR (control sample was without BMVC-8C3O). Then the imino protons in the chemical shift range of 9-14 ppm were measured on a Bruker AVIII 800 MHz spectrometer using a pulsed-gradient spin-echo sequence with a selective refocusing pulse, and the chemical shift was measured relative to a D2O solution of DSS as an external reference. […] The NMR spectra show significant changes after adding 5 eq.
When 1 eq. […] However, when the concentration of BMVC-8C3O is increasing, the necessity of the annealing step decreases. For example, 5 eq. BMVC-8C3O induces spectra changes of the complex of HT24 and BMVC-8C3O in 150 mM K^+ solution at 37° C. (converting from non-parallel to parallel), and the annealing step is not necessary (see FIG. 2C).

[2] = system: d(TTAGGG)4 (HT24), G4 structure of human telomere; experiment: CD thermal melting curve (265 nm) of HT24 G4 structure; type: binding
Procedure: as §1, §2
The BMVC-8C3O of the present invention can not only induce the formation of G4 structures, but also stabilize G4 structures. FIGS. 3A and 3B show the CD spectra of HT24 and its complex with 5 eq. BMVC-8C3O in 5 mM K^+ solution at 25° C. and 95° C., respectively. […] BMVC-8C3O in 5 mM or 150 mM K^+ solution at 265 nm, as a function graph of temperature. After adding 5 eq. BMVC-8C3O at 37° C.

[3] = system: MRC-5 normal human lung fibroblasts; experiment: Long-term cell proliferation curve, MRC-5 normal cells; type: cell-based; conditions: long-term treated with 1.0 μM
Procedure: (§3) CL1-0 lung cancer cells and MRC-5 normal human lung fibroblasts were used in the following experiments, wherein CL1-0 cells were cultured in RPMI-1640 medium containing 10% FBS (fetal bovine serum) and 1% antibiotics (including penicillin and streptomycin), and MRC-5 cells were cultured in MEM medium containing 10% FBS and 1% antibiotics.
(§4) When these cells were subcultured, culture medium containing 1.0 μM BMVC-8C3O (1% DMSO for the control) was used to separate these cells into 5×10^5 cells/petri dish having a diameter of 6 cm. After 2 or 3 days, these cells were trypsinized and counted, and subcultured again with the same density and method. Cells were subcultured repeatedly until the total cell number was less than 5×10^5.
(§5) FIGS. 4A and 4B show the cell proliferation curves of CL1-0 cancer cells and MRC-5 normal cells that long-term treated with 1.0 μM BMVC-8C3O. From FIG. 4A, it is obvious that the proliferation of CL1-0 cancer cells is slowed from around day 10, and stopped at around day 20.

[4] = system: d(TTAGGG)4 (HT24), single strand sequence derived from telomere of human chromosome; experiment: CD spectra: induction of G4 structure formation of HT24 under a salt-deficient condition; type: binding; conditions: 20 μM HT24, salt-deficient condition, room temperature, HT24:BMVC-8C3O 1:0 to 1:10
Procedure: as §1
First, circular dichroism spectroscopy (CD spectra) was used to examine whether BMVC-8C3O could induce the formation of G4 structure of human telomere, HT24, under a salt-deficient condition (Chang et al., 2007; Bugaut et al., 2008; Giraldo et al., 1994). […]
as §2, with “curve. […]” for “curve.”

[5] = system: CL1-0 lung cancer cells; experiment: Long-term cell proliferation curve, CL1-0 cancer cells; type: cell-based; conditions: long-term treated with 1.0 μM
Procedure: as §3, §4, §5

Structure (SMILES)	CD spectral change before and after annealing ([1]; 150 mM K+ solution)	CD spectral change before and after annealing ([1]; 150 mM Na+ solution)	structural change of HT24 (imino proton 1H NMR spectra) ([1]; 0.1 mM HT24, 5 eq. compound, 150 mM KCl, 2 h and 12 h after adding)	conversion of G4 structure conformation of HT24 from non-parallel to parallel (CD spectra) ([1]; 5 eq. compound, 150 mM K+ solution, 37° C., without annealing)	formation of G4 structures and conversion of G4 structures of human telomeres from nonparallel to parallel forms [1]	enhancement of melting temperature (Tm) of HT24 ([2]; 5 eq. compound, 37° C. 24 hours, 5 mM K+ solution)	melting temperature (Tm) of HT24 complex ([2]; 5 eq. compound, 37° C. 24 hours, 5 mM K+ solution, HT24 alone approximately 41° C.)	effect on proliferation of MRC-5 normal cells [3]	induction of G4 structure formation of HT24 (CD spectra) [4]	day at which proliferation of CL1-0 cancer cells is stopped [5]	day from which proliferation of CL1-0 cancer cells is slowed [5]	increase of the melting temperature of the G4 structures of human telomeres ([2]; summary statement, conditions not given at the place)
C[n+]1ccc(C=Cc2ccc3c(c2)c2cc(C=Cc4cc[n+](C)cc4)ccc2n3CCOCCOCCOCC[N+]2(C)CCCCC2)cc1.[I-].[I-].[I-] [BMVC-8C3O, 3,6-Bis(1-methyl-4-vinylpyridium iodide)-9-(1-(1-methyl-piperidinium iodide)-3,6,9-trioxaundecane) carbazole]	significant spectral changes	only CD intensity changes are observed	can induce the structural change of HT24	can convert the conformation of G4 structures from non-parallel to parallel	can induce the formation of G4 structures and convert the G4 structures of human telomeres from nonparallel to parallel forms	about 50 °C	> 90 °C	does not significantly affect	can induce G4 formation under a salt-deficient condition	~20 days	~10 days	–
C[n+]1ccc(C=Cc2ccc3[nH]c4ccc(C=Cc5cc[n+](C)cc5)cc4c3c2)cc1.[I-].[I-] [BMVC, 3,6-bis(1-methyl-4-vinylpyridinium)carbazole diiodide, reference compound]	–	–	–	–	cannot be achieved	–	–	–	–	–	–	approximately 20 °C
